We go through 4 substances from patent publication US7696174B2, “Short bio-active peptides for cellular and immunological modulation” (Helix Biomedix, Inc., priority 2007, dated 2010).

Entries after “also recorded” stand apart in the source; their conditions may differ. Like-named read-outs stand apart in the source and are kept apart here.

Assay [1] has as its system UVB-induced IL6 expression in human skin epithelial cells (ATCC CRL-2592). Briefly: UVB-induced IL6 expression in skin epithelial cells (ELISA). It is filed as cell-based. As to conditions: for IL6 (OD 450): UVB 35 seconds, then 40 μg/mL peptide for twenty hours, UV only 0.7305, control 0.0730. The protocol: FIG. 3: Effect of short peptides on UVB-induced IL6 expression in skin epithelial cells. Cells were exposed to UVB irradiation for 35 seconds, after which cells were incubated in complete medium (no serum) with 40 μg/mL peptide [HB-107 (SEQ ID NO:1), HB-802 (SEQ ID NO:12), HB-1410 (SEQ ID NO:15), HB-801 (SEQ ID NO:31)] for twenty hours. IL6 expression was then measured by ELISA. Refer to Example 4.
An assay was performed to determine whether peptide fragments of HB-107 can induce anti-inflammatory activity in cells exposed to ultraviolet light. Human skin epithelial cells (ATCC CRL-2592) were seeded into 6-well plates and grown to more than 95% confluence in DMEM with 4 mM L-glutamine adjusted to contain 1.5 g/L sodium bicarbonate and 4.5 g/L glucose (complete medium) supplemented with 10% fetal bovine serum. The cells were serum starved for 5 hours prior to UVB treatment. UVB was generated using a UVLMS lamp (4W model, 3UV assembly, Upland, Calif.) with the irradiation wavelength set at 302 nm. The UV lamp was placed 12 cm above the tissue culture plate (6-well plate) and two wells were treated at one time to allow homogenous UVB irradiation. Cells were exposed to UVB irradiation (450 μW/cm^2, measured using a radiometer) in PBS to avoid ultraviolet light-induced generation of toxic photochemicals. IL6 expression was measured as an indicator of cell inflammatory activity in response to UVB.
Individual peptides were screened to determine the effects thereof on UVB-induced IL6 expression in skin epithelial cells. Cells were exposed to UVB (450 μW/cm^2) for 35 seconds in PBS, after which the PBS was replaced with complete medium without serum in the presence or absence of 40 μg/ml peptide and incubated at 37 degrees C./5% CO2 for twenty hours. The supernatant media was then collected and centrifuged at 10,000 rpm to remove debris, prior to ELISA for human IL6 (CellSciences, Mass.).
On the technique in general: In an ELISA, binding on a coated surface is turned into a signal by an enzyme label.

The subject of assay [2] is PAM 212 murine epidermal keratinocyte. Briefly: Cell proliferation assay, PAM 212 murine epidermal keratinocytes. As to conditions: for cell proliferation as a percent of control cell proliferation: control = cells treated with PBS only; for cell proliferation activity (in words): epidermal keratinocytes. It is filed as cell-based. Here is the method:
To examine this question, an overlapping set of peptide fragments of HB-107 was generated using standard solid phase peptide chemistry. These peptides were then assayed for cell proliferation activity at concentrations of 0.22, 2.15, 21.5 and 46.4 μg/mL.
The cell proliferation assays proceeded from the following experimental protocol:
Cell Proliferation Assay Using a Mouse Keratinocyte Cell Line.
OBJECTIVE: To determine the anti-proliferative or cytotoxic potential of a test article when applied to epidermal keratinocytes in culture.
TEST SYSTEM: Either the murine keratinocyte cell line PAM212 or primary Normal Human Epidermal Keratinocytes (NHEK, from Clonetics) are preferred models, although other cells may be used.
Keratinocytes are examined microscopically daily. As the culture becomes 50-75% confluent, the media in the plate is aspirated and 0.25% trypsin/EDTA is added (0.05% trypsin for human cells). When the cells become rounded, the trypsin is neutralized by addition of an equal volume of DMEM or KBM supplemented with approximately 10% bovine serum or by using trypsin neutralizing solution (TNS, from Clonetics). Cells are then centrifuged and the pellet is resuspended in 1 ml of DMEM-1 or KBM. A hemacytometer is used to count the cell suspension and the total number of cells/mL is adjusted to 1.5-2.5×10^4 cells/mL with DMEM-1 or KBM. Cells are then plated in 96-well plates at a concentration of 3.0-5.0×10^3 cells/well by adding 200 μL of the cell suspension to each well. Typically, the central 60 wells are used and the outer wells are filled with DMEM or PBS to minimize evaporation effects.
A stock solution of the test article is prepared using DMEM-1 or KBM, and all other dilutions are henceforth prepared from this solution. Typically, each dilution is filtered through an 0.2-μm filter before application to the cell culture. A 1.0% (w/v or v/v) solution or suspension is prepared, and 10-fold or 3-fold serial dilutions are made in culture medium.
The cells are examined 18-24 hours after plating to ensure cell attachment and division, and then 100 μL of the media is aspirated, leaving behind 100 μL in each well. Then 100 μL of a 2× concentration of each test article dilution is added to the replicate wells. For the negative control, 100 μL of the vehicle media (DMEM-1 or KBM) is added to the control wells. The microplate is then incubated at 37 degrees C. and 5.0% CO2 for 48-72 hours after dosing, and cells are allowed to proliferate undisturbed. Following this 48-72 hour exposure, all media is aspirated and proliferation is assessed by one of the below methods.
Option A: neutral red uptake. After exposure and aspiration of media, 200 μL of neutral red media is immediately added to each well. The microplate is returned to the incubator for an additional three hours. Following this dye uptake period, the microplate is removed from the incubator and gently inverted, and the neutral red media is decanted into a collection pan. The cells are then fixed with fixing solution for approximately one minute. The fixing solution is decanted off, and the microplate is washed gently three times with washing solution. The washing solution is decanted, and 200 μL of lysing solution is added. After at least 15 minutes, the contents of each well are re-pipetted to ensure even color distribution in each well, and an aliquot is read on the spectrophotometer as detailed below.
Option B: MTT conversion assay. After exposure and aspiration of media, 200 μL of MTT assay media is immediately added to each well. […] The microplate is returned to the incubator for an additional three hours. Following this dye uptake period, the microplate is removed from the incubator and gently inverted, and the MTT media is decanted into a collection pan. The cells are then washed gently three times with washing solution. The washing solution is decanted, and 200 μL of lysing solution is added. […]

The test system of assay [3] is IL6 expression in epithelial cells. The experiment in a line: Repression of IL6 expression in resting epithelial cells. The class given is cell-based. As to conditions: for % Change in IL6 expression / Change in IL6 versus PBS control: 20 μg/mL peptide. An excerpt: The protocol for this assay is standard and described by Murakami et al. (2004, J. Immunol. 172:[…]), the article of which is incorporated herein by reference in its entirety.

The conditions of assay [4]: Lee et al., 2004; cited from earlier work.
For assay [5] the following is noted: compared with cecropin B; cited from earlier work.
Assay [6] concerns human epidermal keratinocyte. The experiment in a line: Keratinocyte cell migration assay (tissue culture scratch test). The class given is cell-based. The source says: Cell proliferation alone is not sufficient to aid in wound healing. Upon sustaining an injury, cells bordering the wound proliferate; the migration of such newly formed cells to close the injury (or chronic lesion of older, dysfunctional tissue) is of equal importance. To address this issue, HB-107 and peptide fragments thereof were examined using a keratinocyte cell migration assay based on a simple tissue culture scratch test. […] The protocol for this assay is standard and has been described by Shanley et al. (2004, Invest. Ophthalmol. Vis. Sci. 45:1088-1094), the article of which is herein incorporated by reference in its entirety.

Where [7] appears, read: 24 hr after addition of 20 μg/mL peptide.
The mark [8] stands for this setting: 48 hr after addition of 20 μg/mL peptide.

With “MPKEK (listed as Hyalophora cecropia) [HB-802, fragment of HB-107]”, the “IL6 (OD 450)” value in assay [1] was 0.6500 OD 450. Also, the “cell proliferation as a percent of control cell proliferation” value (from here on “cell proliferation as a percent”) was 121% in assay [2] (0.22 μg/mL peptide), 130% in assay [2] (2.15 μg/mL peptide), 135% in assay [2] (21.5 μg/mL peptide) and 133% in assay [2] (46.4 μg/mL peptide). Moreover, the “cell proliferation activity (in words)” value in assay [2] was “can induce cell proliferation”. Moreover, the “IL6 reduction / anti-inflammatory activity in resting cells (in words)” value in assay [3] was “decrease the level of IL6 expression to the same degree as the HB-107 parent peptide; also recorded: ability to reduce IL6 in resting cells”; in assay [3] (listed as SEQ ID:12), “displays both proliferative and anti-inflammatory activities”. Further, the entries for the “amount of IL6, Average” value in assay [3] (setting [7]) and in assay [3] (setting [8]) were 283.485 pg/mL and 768.045 pg/mL, respectively. The “amount of IL6, Well 1” value was 278.32 pg/mL in assay [3] (setting [7]) and 774.07 pg/mL in assay [3] (setting [8]). Also, the “amount of IL6, Well 2” value is 288.65 pg/mL in assay [3] (setting [7]) and 762.02 pg/mL in assay [3] (setting [8]). Also, the “% Change in IL6 expression” value in assay [3] (24 hr) is −12.50%; in assay [3] (48 hr) it was −21.20%. Moreover, the figures for the “Change in IL6 versus PBS control” value in assay [3] (24 hr) and in assay [3] (48 hr) were −40.435 and −206.99, respectively.

Turning to “MPKEKVFLKIEKMGRNIRN (listed as Hyalophora cecropia) [HB-107, parent peptide, a fragment of cecropin B, an antimicrobial protein present in a species of moth, reference compound]”, the “wound healing in vivo (in words)” value in assay [4] was “does display epidermal wound healing qualities; also recorded: stimulate wound healing in vivo”. The “IL6 (OD 450)” value in assay [1] was 0.7315 OD 450. Moreover, the “cell proliferation as a percent” value in assay [2] (0.22 μg/mL peptide) came out at 57%; in assay [2] (2.15 μg/mL peptide), 75%; in assay [2] (21.5 μg/mL peptide) it was 121%; in assay [2] (46.4 μg/mL peptide), 126%. Further, the “bacteriostatic effects (in words)” value in assay [5] was “does not display the bacteriostatic effects”. Further, the “amount of IL6, Average” value in assay [3] (setting [7]) was 286.065 pg/mL; in assay [3] (setting [8]) it was 738.35 pg/mL. Further, the “amount of IL6, Well 1” value in assay [3] (setting [7]) was 307.58 pg/mL; in assay [3] (setting [8]), 690.58 pg/mL. The “amount of IL6, Well 2” value in assay [3] (setting [7]) is listed as 264.55 pg/mL; in assay [3] (setting [8]), 786.12 pg/mL. Also, the “% Change in IL6 expression” value is reported as −11.60% in assay [3] (24 hr) and −24.30% in assay [3] (48 hr). Further, the results for the “Change in IL6 versus PBS control” value in assay [3] (24 hr) and in assay [3] (48 hr) were −37.435 and −236.685, respectively. In addition, the “percent closure of the scratch compared to initial width” value in assay [6] (6 hr exposure to peptide) worked out at 52%; in assay [6] (10 hr exposure to peptide), 78%.

As for “PKEK (listed as Hyalophora cecropia) [HB-1410, fragment of HB-107]”, in assay [1], the “reduction of UVB-induced IL6 / anti-inflammatory activity (in words)” value is on record as “capable of significantly reducing the level of IL6” and the “IL6 (OD 450)” value is listed as 0.5105 OD 450. Also, the “reduction of UVB-induced IL6 / anti-inflammatory activity (in words)” value in assay [1] (listed as SEQ ID NO:15) is on record as “having anti-inflammatory activity”.

Take “PKEKV (listed as Hyalophora cecropia) [HB-801, fragment of HB-107]”: in assay [1], the “IL6 (OD 450)” value is on record as 0.8275 OD 450. The “cell proliferation as a percent” value in assay [2] (0.22 μg/mL peptide) is 101%; in assay [2] (2.15 μg/mL peptide), 100%; in assay [2] (21.5 μg/mL peptide) it was 113%; in assay [2] (46.4 μg/mL peptide), 131%. Besides, the “cell proliferation activity (in words)” value in assay [2] is recorded as “can induce cell proliferation”.
